The values that follow come from patent US20120177567A1, “Methods of Treating Pediatric Acute Lymphoblastic Leukemia with an Anti-CD22 Immunotoxin” (priority 2010, published 2012).

Molecules are shown by their SMILES. Like-named read-outs stand apart in the source and are kept apart here.

In data set [1] the test system is human bone marrow stromal cells. Conditions: 10 μmol/L, 72 h.
Experimental: 2×10^4 Stromal cells were plated into each well of flat-bottomed 96-well plates and cultured until confluent. On day 1 of the assay, ALL cells were resuspended in RPMI-1640 medium, 10% heat-inactivated FBS, glutamine (1×) and sodium pyruvate (1×). 3×10^5 ALL cells were added to each well of stroma-coated plates. […] SS1P (50 ng/mL), an antimesothelin Pseudomonas immunotoxin, was used as a negative control. The cytotoxicity of dexamethasone (10 μmol/L) was also tested in this assay. Cells were incubated for a further 72 h in a humidified atmosphere at 37° C. with 5% CO2.
At the end of the assay, the stromal cells were incubated with WST-1.
The subject of data set [2] is B-lineage ALL cells. Nature of the data set: cells. Conditions: Homo sapiens.
Text: Blood and bone marrow samples were obtained from 35 patients with B-lineage ALL (Table SI) treated at the National Cancer Institute (NCI), St Jude Children's Research Hospital (SJCRH) or Johns Hopkins Hospital (JHH) with informed consent. The majority (n=22) were obtained from individuals with multiply relapsed ALL who were referred to the NCI for Phase I clinical trial participation. Thirteen patient samples from initial diagnosis were randomly selected from those available in the tumor banks at SJCRH and JHH. Thirty-three cases were characterized as pre-B ALL by flow cytometry and two as Burkitt-type/mature B-cell ALL. In all cases, >80% blasts expressed CD19 and CD22 antigens by flow cytometry. Cells were cryopreserved in RPMI-1640 medium with 10% fetal bovine serum (FBS) and 10% dimethyl sulfoxide.
Briefly, human bone marrow stromal cells that had been immortalized by telomerase transfection (developed at St Jude Children's Research Hospital) were cultured in RPMI-1640 medium (Invitrogen, Carlsbad, Calif., USA) with 10% fetal calf serum (Sigma-Aldrich, St Louis, Mo., USA). 2×10^4 Stromal cells were plated into each well of flat-bottomed 96-well plates and cultured until confluent. On day 1 of the assay, ALL cells were resuspended in RPMI-1640 medium, 10% heat-inactivated FBS, glutamine (1×) and sodium pyruvate (1×). 3×10^5 ALL cells were added to each well of stroma-coated plates. […] SS1P (50 ng/mL), an antimesothelin Pseudomonas immunotoxin, was used as a negative control. The cytotoxicity of dexamethasone (10 μmol/L) was also tested in this assay. Cells were incubated for a further 72 h in a humidified atmosphere at 37° C. with 5% CO2.
The cells were harvested by vigorous pipetting, transferred to Falcon tubes (Cat. No. 352052; BD Biosciences, San Jose, Calif., USA) and labelled with mouse anti-human CD19 antibody conjugated to fluorescein isothiocyanate (Cat. No. 555412; BD Pharmingen, San Jose, Calif., USA). […] The cells were analysed with a FACScalibur flow cytometer in combination with CellQuest (Becton Dickinson, Franklin Lakes, N.J., USA) and FlowJo software (Tree Star Inc., Ashland, Oreg., USA).
Viability was assessed by setting gates based on the light scatter properties of the blasts. Due to spontaneous cell death, the relative percentage of viable cells at the end of the assay was calculated using the following formula: (no. of CD19^+ viable cells recovered in test well/no. of CD19^+ viable cells in untreated well×100). […]
An exact Wilcoxon rank sum test was used to determine the statistical significance of the difference in unpaired observations between two groups of pediatric patients. […] Correlations between parameters were evaluated using Spearman rank correlation analysis.

Take `C[C@@H]1C[C@H]2[C@@H]3CCC4=CC(=O)C=C[C@]4(C)[C@@]3(F)[C@@H](O)C[C@]2(C)[C@@]1(O)C(=O)CO` [dexamethasone, Dexamethasone]: in data set [1], the “stromal cells compared to untreated controls (WST-1)” value is “no difference”. Besides, the viability at 10 µM in data set [2] (72 h, read-out: percentage of viable ALL cells, range, 10 μmol/l, 72 h) is 4 to 158%; in data set [2] (read-out: percentage of viable ALL cells, median, 10 μmol/l, ALL samples from diagnosis), 29%; in data set [2] (read-out: percentage of viable ALL cells, median, 10 μmol/l, all samples), 40%; in data set [2] (read-out: percentage of viable ALL cells, median, 10 μmol/l, relapse samples) it was 42%.
